Broadly, the IC50 is the concentration that inhibits the measured activity by half. As a reminder, the melting point is the temperature of the solid-liquid transition. In general, GI50 refers to the concentration that inhibits growth by half.

Results on one compound are retold here after patent US9796753B2, “N-substituted indenoisoquinolines and syntheses thereof” (Purdue Research Foundation, priority 2005, dated 2017).

For one data set, the target named is recombinant TDP1 (Homo sapiens, UniProt Q9NUW8). Briefly: Gel-based assay measuring the inhibition of recombinant TDP1. The class given is biochemical. The protocol: A 5′-[^32P]-labeled single-stranded DNA oligonucleotide containing a 3′-phosphotyrosine (N14Y) was generated as described by Dexheimer et al. (J. Med. Chem. 2009, 52, 7122-7131). The DNA substrate was then incubated with 5 μM recombinant TDP1 in the absence or presence of inhibitor for 15 min at room temperature in a buffer containing 50 mM Tris HCl, pH 7.5, 80 mM KCl, 2 mM EDTA, 1 mM DTT, 40 μg/ml BSA and 0.01% Tween-20. Reactions were terminated by the addition of 1 volume of gel loading buffer [99.5% (v/v) formamide, 5 mM EDTA, 0.01% (w/v) xylene cyanol, and 0.01% (w/v) bromophenol blue]. Samples were subjected to a 16% denaturing PAGE and gels were exposed after drying to a PhosphorImager screen (GE Healthcare). Gel images were scanned using a Typhoon 8600 (GE Healthcare) and densitometric analyses were performed using the ImageQuant software (GE Healthcare).
Sequence of recombinant TDP1 (Q9NUW8 whole entry): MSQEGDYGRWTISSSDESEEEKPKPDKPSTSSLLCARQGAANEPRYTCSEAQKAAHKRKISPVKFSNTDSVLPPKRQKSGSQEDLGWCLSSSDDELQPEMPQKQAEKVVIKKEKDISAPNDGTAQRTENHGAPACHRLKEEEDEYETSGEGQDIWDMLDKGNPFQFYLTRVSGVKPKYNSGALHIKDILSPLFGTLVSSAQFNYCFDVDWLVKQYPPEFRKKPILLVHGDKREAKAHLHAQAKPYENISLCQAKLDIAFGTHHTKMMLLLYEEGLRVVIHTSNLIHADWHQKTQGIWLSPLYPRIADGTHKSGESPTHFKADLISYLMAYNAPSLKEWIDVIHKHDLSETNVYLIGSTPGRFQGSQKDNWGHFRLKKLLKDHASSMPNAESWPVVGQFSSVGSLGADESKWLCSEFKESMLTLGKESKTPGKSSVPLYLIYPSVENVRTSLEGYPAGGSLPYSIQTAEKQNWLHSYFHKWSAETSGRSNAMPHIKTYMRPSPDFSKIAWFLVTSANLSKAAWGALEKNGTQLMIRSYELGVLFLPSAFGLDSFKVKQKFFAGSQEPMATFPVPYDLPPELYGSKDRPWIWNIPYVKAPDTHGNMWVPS
The TDP1 inhibitory activities of the O-2-substituted indenoisoquinolines were measured by determining their abilities to inhibit the hydrolysis of the phosphodiester linkage between tyrosine and the 3′-end of a DNA oligonucleotide substrate and thus prevent the generation of an oligonucleotide with a free 3′-phosphate (N14P, Scheme 13). Therefore, the disappearance of the gel band for N14P indicates TDP1 inhibition.
Tyrosyl-DNA phosphodiesterase 1 (TDP1) is a DNA repair enzyme that repairs cytotoxic DNA damage induced by Top1 inhibitors.

Data set [1] concerns all human cancer cell lines successfully tested. Briefly: NCI screen mean graph midpoint (MGM) for growth inhibition. Format: cell-based. The note with it: Table 6. The method, boiled down: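 NCI60 panel cells exposed to compound at 100, 10, 1, 0.1 and 0.01 μM for 48 h, then sulforhodamine B staining. Percentage growth versus control plotted against log concentration; MGM is the midpoint across all lines tested.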

In the next data set the test system is colon HCT-116. Put plainly: COMPARE screening (NCI human cancer cell line screen), cytotoxicity GI50. Format: cell-based. Conditions: Homo sapiens, HCT-116, 48 h, read-out: Cytotoxicity (GI50) Colon HCT-116. The method, boiled down: (§1)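 Step one: incubate NCI60 cell lines 48 h with test agent (100–0.01 μM, tenfold steps). Step two: SRB dye treatment and OD reading. Step three: percentage growth relative to control plotted against log10 concentration.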

The test system of another data set is CNS SF-539. The description is as above. The class given is cell-based. Conditions: Homo sapiens, CNSSF-539, 48 h, read-out: Cytotoxicity (GI50) CNS SF-539. In outline: as §1
A further data set concerns ovarian OVCAR-3. The description is as above. The class given is cell-based. Conditions: Homo sapiens, OVCAR-3, 48 h, read-out: Cytotoxicity (GI50) Ovarian OVCAR-3. The method, boiled down:
as §1

A further data set deals with melanoma UACC-62. Described as above. Conditions: Homo sapiens, UACC-62, 48 h, read-out: Cytotoxicity (GI50) melanoma UACC-62. The class given is cell-based. The method, boiled down: as §1
Another data set concerns prostate DU-145. The description is as above. The note with it: Homo sapiens, DU-145, 48 h, read-out: Cytotoxicity (GI50) prostate DU-145. The class given is cell-based. The method, boiled down: as §1
The next data set has as its system lung HOP-62. Described as above. Format: cell-based. The note with it: Homo sapiens, HOP-62, 48 h, read-out: Cytotoxicity (GI50) lung HOP-62. In outline:
as §1

Another data set has as its system renal SN12C. Described as above. The class given is cell-based. The note with it: Homo sapiens, SN12C, 48 h, read-out: Cytotoxicity (GI50) renal SN12C. In outline:
as §1

The target of another data set is T1, Human recombinant Top1 (Homo sapiens, UniProt P11387).
T1 construct: made in house
T1 sequence (P11387 1-765): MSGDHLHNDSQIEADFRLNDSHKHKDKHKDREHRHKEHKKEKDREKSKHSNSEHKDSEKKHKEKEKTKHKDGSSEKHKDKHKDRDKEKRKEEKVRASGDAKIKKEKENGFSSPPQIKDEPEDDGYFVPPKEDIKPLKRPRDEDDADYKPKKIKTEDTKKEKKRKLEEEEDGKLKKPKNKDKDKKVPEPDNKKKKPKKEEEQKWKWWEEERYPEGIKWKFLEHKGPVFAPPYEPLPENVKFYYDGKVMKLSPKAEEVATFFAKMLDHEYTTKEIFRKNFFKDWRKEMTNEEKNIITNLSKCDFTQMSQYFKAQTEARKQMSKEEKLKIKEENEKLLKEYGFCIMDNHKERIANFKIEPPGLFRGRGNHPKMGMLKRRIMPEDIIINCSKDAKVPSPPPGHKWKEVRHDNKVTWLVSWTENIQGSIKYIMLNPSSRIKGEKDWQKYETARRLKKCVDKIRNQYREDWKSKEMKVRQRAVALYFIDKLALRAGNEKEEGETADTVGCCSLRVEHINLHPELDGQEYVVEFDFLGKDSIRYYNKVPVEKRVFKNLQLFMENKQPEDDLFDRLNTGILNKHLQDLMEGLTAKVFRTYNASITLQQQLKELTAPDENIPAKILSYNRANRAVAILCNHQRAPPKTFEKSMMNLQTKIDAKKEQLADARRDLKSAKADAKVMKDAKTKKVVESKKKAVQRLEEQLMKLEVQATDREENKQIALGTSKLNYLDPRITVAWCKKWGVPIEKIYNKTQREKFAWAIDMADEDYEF
Briefly: Topoisomerase 1-mediated DNA cleavage reactions (B), 117-bp DNA oligonucleotide. Format: biochemical. Set-up: key to Top1 (compound-induced DNA cleavage due to Top1 inhibition): 0, no detectable activity; +, weak activity; ++, similar activity to compound 5; +++, greater activity than 34; ++++ , equipotent to 32; The (+) ranking indicates the activity lies between two given values. Conditions: Table 5. The protocol:
Human recombinant Top1 was purified from baculovirus as described in Bailly, C. Curr. Med. Chem. 2000, 7, 39-58. DNA cleavage reactions were prepared as previously reported with the exception of the DNA substrate in Saltz, et al. Oncologist 1997, 2, 402-409.
Approximately 2 nM radiolabeled DNA substrate was incubated with recombinant Top1 in 20 μL of reaction buffer [10 mM Tris-HCl (pH 7.5), 50 mM KCl, 5 mM MgCl2, 0.1 mM EDTA, and 15 μg/mL BSA] at 25° C. for 20 min in the presence of various concentrations of compounds. […] Aliquots of each reaction mixture were subjected to 20% denaturing PAGE. Gels were dried and visualized using a phosphoimager and ImageQuant software (Molecular Dynamics).
All of the new indenoisoquinoline derivatives with C-2 side chains were tested in Top1-mediated DNA cleavage assays. For this purpose, a ^32P 3′-end labeled 117-bp DNA fragment was incubated with Top1 and four 10-fold dilutions starting from 100 μM of a tested compound. The DNA fragments were separated on 20% PAGE denaturing gels. The Top1 inhibitory activities were assigned on the basis of the visual inspection of the number and intensities of the gel bands corresponding to Top1-mediated DNA cleavage fragments. […] Ambiguous scores (e.g., between two values) are designated with parentheses (e.g., ++(+) would be between ++ and +++).

The subject of the next data set is breast MCF-7. Briefly: NCI60 antiproliferative activity, cytotoxicity GI50. The class given is cell-based, human. The note with it: Homo sapiens, MCF7, 48 h, read-out: Cytotoxicity (GI50) breast MCF-7. The procedure: Selected compounds were tested for antiproliferative activity in the National Cancer Institute's developmental therapeutics assay 60 cell line screen (NCI60). The cells were incubated with the tested compounds at 100, 10, 1, 0.1, and 0.01 μM concentrations for 48 h before treatment with sulforhodamine B dye. Optical densities were recorded, and their ratios relative to that of the control were plotted as percentage growth against the log 10 of the tested compound concentrations.

For `C=CCOc1cc2c3c(n(CCCN4CCOCC4)c(=O)c2cc1OC)-c1cc2c(cc1C3=O)OCO2` [Compound 20, 2-(Allyloxy)-3-methoxy-6-(3-morpholinopropyl)-5H-[1,3]dioxolo[4′,5′:5,6]indeno [1,2-c]isoquinoline-5,12(6H)-dione], the melting point is 199 to 200 °C (dec.). Moreover, the “TDP1 inhibitory activity (in words)” value on recombinant TDP1 was “no detectable TDP1 inhibitory activity”. For the same compound, on recombinant TDP1 (Table 5, determined in duplicate, read-out: TDP1 (IC50, semiquantitative scale)), the IC50 is greater than 111000 nM. Further, the “GI50's against various cell lines (in words)” value in data set [1] (NCI60 cell lines) is reported as “submicromolar”. Moreover, the MGM (mean GI50 across cell lines) in [1] (all human cancer cell lines successfully tested, range 10^−8 to 10^−4 molar, with standard error) worked out at 100 ± 35 nM. In addition, the GI50 with colon HCT-116 was determined as 10 nM. In addition, the GI50 in the data set with CNS SF-539 was 10 nM. In addition, the concentration for 50% growth inhibition (GI50) with ovarian OVCAR-3 came out at 300 nM. Further, the concentration for 50% growth inhibition (GI50) in the data set on melanoma UACC-62 is less than 10 nM. For the same compound, the concentration for 50% growth inhibition (GI50) with prostate DU-145 is less than 10 nM. Further, in the data set on lung HOP-62, the GI50 was less than 10 nM. The GI50 in the data set with renal SN12C is less than 10 nM. Further, the “Top1 inhibitory activity (level)” value on Human recombinant Top1 (relative to compounds 32 and 33) was “+ or ++”. The “Top1 (compound-induced DNA cleavage due to Top1 inhibition)” value at Human recombinant Top1 (semiquantitative scale relative to 1 μM camptothecin (32) or MJ-III-65 (34)) was “+”. Besides, in the data set on breast MCF-7, the concentration for 50% growth inhibition (GI50) is less than 10 nM.
